In ChEMBL document CHEMBL1132469 (J Med Chem, 1999) one finds IC50 data, which are given here for seven compounds.

Assay [1] concerns the target T1, Histone deacetylase HD2 (Zea mays, UniProt Q94F81).
T1 sequence (Q94F81 whole entry): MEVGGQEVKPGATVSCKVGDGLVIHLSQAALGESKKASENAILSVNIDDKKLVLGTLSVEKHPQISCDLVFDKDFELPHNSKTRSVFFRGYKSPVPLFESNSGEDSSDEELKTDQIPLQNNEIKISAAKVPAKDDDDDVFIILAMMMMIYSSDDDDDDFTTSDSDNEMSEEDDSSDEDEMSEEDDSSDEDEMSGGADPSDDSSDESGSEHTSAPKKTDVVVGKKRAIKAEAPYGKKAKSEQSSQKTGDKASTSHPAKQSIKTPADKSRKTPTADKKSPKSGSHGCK
The assay can be described thus: Inhibition of maize Histone Deacetylase 2 (HD-2) activity (inactive at 40 uM).

The target in assay [2] is T1, Histone deacetylase HD2. Kind of assay: Inhibition of maize Histone deacetylase 2 (HD-2) activity.

In the case of `CN(C)c1ccc(C(=O)Nc2ccc(CC(=O)NO)cc2)cc1`, the IC50 result on Histone deacetylase HD2 [1] is “Not Active”.

With `O=C(O)CCCCCNC(=O)c1ccccc1`, the 50% inhibitory concentration (IC50) result on Histone deacetylase HD2 [1] is “Not Active”.

As to `CN(C)c1ccc(C(=O)NCCCCC(=O)NO)cc1`, the IC50 on Histone deacetylase HD2 [2] was found to be 2000 nM. That is a single-digit micromolar value.

On to `CN(C)c1ccc(C(=O)NCCCCCCC(=O)NO)cc1`, for which the midpoint of inhibition at Histone deacetylase HD2 [2], the IC50, lay at 100 nM.

As for `CN(C)c1ccc(C(=O)NCc2ccc(C(=O)NO)cc2)cc1`, it took 180 nM to reach half-maximal inhibition against Histone deacetylase HD2 [2] (IC50).

Turning to `CN(C)c1ccc(C(=O)Nc2ccc(CC(=O)O)cc2)cc1`, the IC50 result against Histone deacetylase HD2 [1] is recorded as “Not Active”.

`CN(C)c1ccc(C(=O)NCCCCCC(=O)NO)cc1` had an IC50 on Histone deacetylase HD2 [2] of 100 nM.

The term IC50 denotes the point on the concentration scale where inhibition reaches its midpoint. A lower IC50 goes with inhibition by little substance.
